Molecules are shown by their SMILES. pKi: −log10 of the molar value. Where a SMILES comes first, the peptide text is derived from it. [ ]: non-standard residue; d: D form. The star is where a group is joined. 2Nal = N[C@@H](Cc1ccc2ccccc2c1)C(=O)O; hPhe = N[C@@H](CCc1ccccc1)C(=O)O; Cha = N[C@@H](CC1CCCCC1)C(=O)O; Phg = N[C@H](C(=O)O)c1ccccc1; Nle = CCCC[C@H](N)C(=O)O; Nva = CCC[CH](N)C(=O)O; Cbz = O=C(OCc1ccccc1)*; Bn = c1ccc(C*)cc1; NHBu = CCCCN*

This is an account of results in ChEMBL document CHEMBL1133599, “Inhibitors of tripeptidyl peptidase II. 2. Generation of the first novel lead inhibitor of cholecystokinin-8-inactivating peptidase: a strategy for the design of peptidase inhibitors” (J Med Chem, 2000).

Tripeptidyl-peptidase 2, sequence (Q64560 whole entry): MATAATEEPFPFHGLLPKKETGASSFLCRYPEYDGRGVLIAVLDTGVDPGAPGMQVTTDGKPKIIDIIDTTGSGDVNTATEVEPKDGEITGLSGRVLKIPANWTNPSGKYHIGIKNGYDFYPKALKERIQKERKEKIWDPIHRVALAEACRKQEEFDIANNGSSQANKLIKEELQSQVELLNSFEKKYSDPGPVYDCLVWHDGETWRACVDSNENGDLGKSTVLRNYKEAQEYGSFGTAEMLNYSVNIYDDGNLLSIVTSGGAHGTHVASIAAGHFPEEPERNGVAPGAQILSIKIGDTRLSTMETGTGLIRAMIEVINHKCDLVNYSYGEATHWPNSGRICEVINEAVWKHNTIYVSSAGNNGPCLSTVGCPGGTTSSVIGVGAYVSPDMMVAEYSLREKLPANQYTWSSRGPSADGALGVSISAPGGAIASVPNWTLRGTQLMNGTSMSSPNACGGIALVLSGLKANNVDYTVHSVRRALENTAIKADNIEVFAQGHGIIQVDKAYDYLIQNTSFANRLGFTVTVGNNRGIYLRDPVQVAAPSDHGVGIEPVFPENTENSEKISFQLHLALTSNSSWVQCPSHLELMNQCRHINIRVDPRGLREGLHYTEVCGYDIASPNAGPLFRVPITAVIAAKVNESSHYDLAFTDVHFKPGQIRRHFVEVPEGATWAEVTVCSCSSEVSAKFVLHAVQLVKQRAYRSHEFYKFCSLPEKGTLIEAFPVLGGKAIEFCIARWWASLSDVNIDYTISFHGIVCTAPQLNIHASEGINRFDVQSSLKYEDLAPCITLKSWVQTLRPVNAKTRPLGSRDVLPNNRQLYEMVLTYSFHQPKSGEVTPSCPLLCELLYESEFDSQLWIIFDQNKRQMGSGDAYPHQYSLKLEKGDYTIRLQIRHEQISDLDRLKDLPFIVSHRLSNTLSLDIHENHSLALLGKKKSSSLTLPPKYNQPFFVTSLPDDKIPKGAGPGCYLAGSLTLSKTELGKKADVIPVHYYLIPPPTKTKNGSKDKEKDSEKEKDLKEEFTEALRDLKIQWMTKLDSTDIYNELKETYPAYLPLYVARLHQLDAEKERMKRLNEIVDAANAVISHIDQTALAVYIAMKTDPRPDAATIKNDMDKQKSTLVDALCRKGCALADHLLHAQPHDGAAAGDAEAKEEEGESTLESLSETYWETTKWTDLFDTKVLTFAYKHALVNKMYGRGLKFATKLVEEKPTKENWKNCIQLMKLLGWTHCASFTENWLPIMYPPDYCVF

This assay addresses Tripeptidyl-peptidase 2 (Rattus norvegicus, UniProt Q64560). The assay is described as follows: Inhibition potency against Cholecystokinin-8-Inactivating Peptidase (Serine Peptidase).
Take `CC(C)[C@H](N)C(=O)NCCc1ccccc1`: the negative logarithm of the Ki (pKi) was 3.94. The same measure for `CC(C)[C@H](N)C(=O)NC(CO)Cc1ccccc1` (stereo partly drawn): 2.68. With `CC(C)[C@H](N)C(=O)NCCCc1ccccc1`, the pKi is 4.07. Next, `CC(C)[C@H](N)C(=O)NCCCCc1ccccc1`: 4.48. `CCCCOC(=O)C(CCCC)NC(=O)C(NC(=O)OCc1ccccc1)C(C)C` (stereo not drawn) showed a pKi of less than 2.52. Compound `CC(C)[C@H](N)C(=O)NCc1ccccc1` gave a negative-log Ki (pKi) of 4.10. In the case of `C[C@H](N)C(=O)N[C@@H](C)C(=O)N[C@@H](C)C(=O)O`, the negative logarithm of the Ki (pKi) was 4.85. The compound `CCCCOC(=O)[C@H](Cc1ccccc1)NC(=O)[C@@H](N)C(C)C` gave a negative logarithm of the Ki (pKi) of 3.64. The same measure for `CCCC[C@H](NC(=O)[C@@H](N)CCCC)C(=O)NC`: 5.05; for `CCCCOC(=O)[C@H](CCCC)NC(=O)[C@@H](N)C(C)C`: 3.54. Next, `CCCC[C@H](NC)C(=O)N[C@@H](CCCC)C(=O)NC`: less than 2.52.

`CCCCOC(=O)N[C@H](C(=O)N[C@@H](CCCC)C(=O)O)C(C)C` had a pKi of less than 2.30. Next, `CCCC[C@H](NC(=O)[C@@H](N)CCCC)C(=O)O`: 2.84. Take `CCC[C@H](NC(=O)[C@@H](NCc1ccccc1)C(C)C)C(=O)O`: the negative logarithm of the Ki (pKi) is less than 2.30. The same measure for `CSCC[C@@H](NC(=O)[C@@H](N)C(C)C)C(=O)O`: 2.70; for `CSCC[C@@H](N)C(=O)N[C@@H](Cc1ccc(O)cc1)C(=O)O`: 2.70; for `CCCC[C@H](NC)C(=O)N[C@@H](CCCC)C(=O)OC`: less than 2.30. Next, `CCCC[C@H](NC(=O)[C@@H](N)C(C)C)C(=O)NCCCc1ccccc1`: 4.54; `CCCC[C@H](NCc1ccccc1)C(=O)N[C@@H](CCCC)C(=O)NC`: less than 2.52. The same measure for `CC(N)C(=O)NC(C)C(=O)O` (stereo not drawn): 2.30; for `C[C@H](N)C(=O)N[C@@H](Cc1ccccc1)C(=O)O`: 2.94; for `CCC[C@H](NC(=O)[C@@H](NC(C)=O)C(C)C)C(=O)O` (Ac-Val-[Nva]-OH): less than 3.30. In the case of `CC(C)C(NC(=O)C(NC(=O)OCc1ccccc1)C(C)C)C(=O)O` (stereo not drawn) (Cbz-Val-Val-OH; configuration not given here), the pKi was less than 2.30.

As to `CCCC(NC(=O)C(NC(=O)OCc1ccccc1)C(C)C)C(=O)O` (stereo not drawn) (Cbz-Val-[Nva]-OH; configuration not given here), the pKi was less than 2.30.

The compound `C[C@H](N)C(=O)N[C@@H](C)C(=O)N1CCC[C@H]1C(=O)N[C@@H](C)C(=O)O` (H-AAPA-OH) had a pKi of 3.94.

For the compound `C[C@H](N)C(=O)N1CCC[C@H]1C(=O)N[C@@H](C)C(=O)O` (H-Ala-Pro-Ala-OH), the negative logarithm of the Ki (pKi) was 5.52. Next, `C[C@H](N)C(=O)N1CCC[C@H]1C(=O)O` (H-Ala-Pro-OH): 2.85; `CSCC[C@H](NC(=O)[C@H](Cc1ccc(O)cc1)NC(=O)[C@@H](N)CC(=O)O)C(=O)O` (H-Asp-Tyr-Met-OH): 4.30; `N[C@@H](CC(=O)O)C(=O)N[C@@H](Cc1ccc(O)cc1)C(=O)O` (H-Asp-Tyr-OH): less than 2.30. The same measure for `NCC(=O)NCC(=O)N[C@@H](Cc1ccccc1)C(=O)O` (H-Gly-Gly-Phe-OH): 3.96; for `NCC(=O)N[C@@H](Cc1ccccc1)C(=O)O` (H-Gly-Phe-OH): 3.33; for `CSCC[C@H](NC(=O)[C@H](Cc1c[nH]c2ccccc12)NC(=O)CN)C(=O)O` (H-Gly-Trp-Met-OH): 4.70. The compound `NCC(=O)N[C@@H](Cc1c[nH]c2ccccc12)C(=O)O` (H-Gly-Trp-OH) had a pKi of 3.19.

With `CC(C)[C@H](NC(=O)CN)C(=O)N[C@@H](Cc1ccccc1)C(=O)O` (H-Gly-Val-Phe-OH), the negative-log Ki (pKi) was 4.54. On to `CC(C)[C@H](N)C(=O)N[C@@H](C)C(=O)O` (H-Val-Ala-OH), for which the negative-log Ki (pKi) was 2.05. Next, `CCCCNC(=O)[C@H](Cc1ccccc1)NC(=O)[C@@H](N)C(C)C` (H-Val-Phe-NHBu): 4.70; `CNC(=O)[C@H](Cc1ccccc1)NC(=O)[C@@H](N)C(C)C` (H-Val-Phe-NHMe): 4.66. On to `COC(=O)[C@H](Cc1ccccc1)NC(=O)[C@@H](N)C(C)C` (H-Val-Phe-OMe), for which the pKi is 3.59. The same measure for `CC(C)C(N)C(=O)NC(Cc1ccc(OCc2ccccc2)cc1)C(=O)O` (stereo not drawn) (H-Val-Tyr(Bn)-OH; configuration not given here): 3.68; for `CNC(=O)[C@H](Cc1ccc(O)cc1)NC(=O)[C@@H](N)C(C)C` (H-Val-Tyr-NHMe): 4.96. Next, `CC(C)[C@H](N)C(=O)N[C@@H](Cc1ccc(O)cc1)C(=O)O` (H-Val-Tyr-OH): 3.07; `CNC(=O)[C@@H](NC(=O)[C@@H](N)C(C)C)C(C)C` (H-Val-Val-NHMe): 4.34. With `CC(C)[C@H](N)C(=O)N[C@@H](Cc1ccc2ccccc2c1)C(=O)O` (H-Val-[2Nal]-OH), the negative-log Ki (pKi) was 4.22. The pKi values of the last two compounds are within 0.2 log units of each other. Turning to `CCCCNC(=O)[C@H](CC1CCCCC1)NC(=O)[C@@H](N)C(C)C` (H-Val-[Cha]-NHBu), the pKi is 4.24. Next, `CC(C)[C@H](N)C(=O)N[C@@H](CC1CCCCC1)C(=O)O` (H-Val-[Cha]-OH): 2.52; `CCCCNC(=O)[C@H](CCCC)NC(=O)[C@@H](N)C(C)C` (H-Val-[Nle]-NHBu): 4.85. In the case of `CCCC[C@H](NC(=O)[C@@H](N)C(C)C)C(=O)NC` (H-Val-[Nle]-NHMe), the pKi is 4.18. The same measure for `CCCC[C@H](NC(=O)[C@@H](N)C(C)C)C(=O)O` (H-Val-[Nle]-OH): 3.07.

As to `CCCCNC(=O)[C@H](CCC)NC(=O)[C@@H](N)C(C)C` (H-Val-[Nva]-NHBu), the negative-log Ki (pKi) was 5.52. The same measure for `CCC[C@H](NC(=O)[C@@H](N)C(C)C)C(=O)NC` (H-Val-[Nva]-NHMe): 4.55; for `CCC[C@H](NC(=O)[C@@H](N)C(C)C)C(=O)O` (H-Val-[Nva]-OH): 3.36; for `CNC(=O)[C@@H](NC(=O)[C@@H](N)C(C)C)c1ccccc1` (H-Val-[Phg]-NHMe): 4.54. The same measure for `CC(C)[C@H](N)C(=O)N[C@H](C(=O)O)c1ccccc1` (H-Val-[Phg]-OH): 3.22; for `CC(C)[C@H](N)C(=O)N[C@@H](CCc1ccccc1)C(=O)O` (H-Val-[hPhe]-OH): 3.24. Next, `CCC[C@H](NC(=O)[C@@H](N)CCC)C(=O)O` (H-[Nva]-[Nva]-OH): 3.00; `CSCC[C@@H](N)C(=O)N[C@H](CCSC)C(=O)O` (H-[dM]-[dM]-OH): less than 2.30; `CC[C@H](C)[C@H](N)C(=O)N1CCC[C@H]1C(=O)N[C@H](C(=O)O)[C@@H](C)CC` [DIPROTIN A]: 6.00. Compound `CC(C)[C@H](N)C(=O)N[C@H](C(=O)O)C(C)C` [VAL-VAL] (H-Val-Val-OH) gave a pKi of 2.78.

By pKi is commonly meant the negative decadic logarithm of the Ki, by convention in mol/L. A lower pKi goes with a high Ki.
